# Source: patent publication US20240025903A1, “Bicyclic Compounds and Uses Thereof for the Treatment of Diseases” (Athira Pharma, Inc., priority 2020, published 2024)
# Key:
# [1] = Turbidimetric solubility assay; type: physicochemical; settings: aqueous buffer, kinetic from dmso stock, PBS, 37° C., absorbance 620 nm
# Procedure: Aqueous solubility is a critical drug property that helps to predict bioavailability. Generally, compounds with aqueous solubility <100 μg/ml are poor drugs.
# To assess a compound's solubility by turbidity, test compounds were first dissolved in organic solvent (DMSO) at a concentration of 10 mM. This compound solution was then diluted in aqueous solvent (PBS) in a dilution series from […] in a 96-well assay plate. Solutions were incubated at 37° C. for 2 hours.
# In wells with test compounds over their solubility limit, the compound will precipitate, effectively blocking the passage of light and thus increasing the absorbance signal of UV light at a wavelength of 620 nm. Compounds were considered insoluble at a tested concentration if turbidity raises the absorbance more than 10% above control reads.
# HGF/MET system = molecular target: T1, HGF/MET system (Homo sapiens, UniProt P08581+P14210); experiment: Phospho-MET ELISA; type: cell-based; parameters: key: − indicates that the compound failed to significantly augment MET phosphorylation; + indicates maximum potency at or above 100 nM; ++ indicates maximum potency at or above 10 nM; +++ indicates maximum potency at or above 1 nM; ++++ indicates maximum potency at or above 0.1 nM; settings: HEK293 cells, 1 ng/mL recombinant HGF, 15 minutes, pMET ELISA
# T1 construct: HEK293 cells were prepared by passage into 6-well multi-plates; endogenous in cells; host or cells: HEK293
# T1 sequence (P08581 308-1390 limits assumed): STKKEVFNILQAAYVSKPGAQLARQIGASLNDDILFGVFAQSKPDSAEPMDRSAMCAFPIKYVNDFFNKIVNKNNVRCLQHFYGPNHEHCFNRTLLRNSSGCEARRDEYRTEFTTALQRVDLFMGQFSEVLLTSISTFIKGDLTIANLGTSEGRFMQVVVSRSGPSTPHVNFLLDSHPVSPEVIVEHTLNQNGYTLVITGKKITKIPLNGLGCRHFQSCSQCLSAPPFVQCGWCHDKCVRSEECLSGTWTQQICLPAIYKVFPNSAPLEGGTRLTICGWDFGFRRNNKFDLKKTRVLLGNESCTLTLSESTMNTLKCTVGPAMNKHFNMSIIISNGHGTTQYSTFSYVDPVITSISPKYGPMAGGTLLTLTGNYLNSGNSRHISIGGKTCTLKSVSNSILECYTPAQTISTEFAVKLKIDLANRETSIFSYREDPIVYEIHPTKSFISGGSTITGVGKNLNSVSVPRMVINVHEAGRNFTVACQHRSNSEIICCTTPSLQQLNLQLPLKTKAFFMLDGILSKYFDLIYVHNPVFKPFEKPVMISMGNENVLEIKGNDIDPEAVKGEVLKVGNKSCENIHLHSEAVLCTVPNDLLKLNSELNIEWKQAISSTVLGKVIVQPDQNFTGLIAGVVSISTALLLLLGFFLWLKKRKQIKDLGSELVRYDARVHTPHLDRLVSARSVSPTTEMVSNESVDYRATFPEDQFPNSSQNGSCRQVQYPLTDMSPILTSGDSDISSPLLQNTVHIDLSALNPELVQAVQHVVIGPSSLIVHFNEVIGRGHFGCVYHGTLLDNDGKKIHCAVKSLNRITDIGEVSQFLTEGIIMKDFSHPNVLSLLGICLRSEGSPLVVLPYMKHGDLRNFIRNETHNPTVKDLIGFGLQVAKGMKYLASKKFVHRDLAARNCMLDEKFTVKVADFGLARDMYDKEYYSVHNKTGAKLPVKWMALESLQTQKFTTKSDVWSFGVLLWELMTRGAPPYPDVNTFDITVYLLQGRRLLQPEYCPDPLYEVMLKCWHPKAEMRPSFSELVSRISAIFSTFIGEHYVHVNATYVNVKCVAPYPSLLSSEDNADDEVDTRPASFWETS
# T1 sequence (P14210 32-494 limits assumed): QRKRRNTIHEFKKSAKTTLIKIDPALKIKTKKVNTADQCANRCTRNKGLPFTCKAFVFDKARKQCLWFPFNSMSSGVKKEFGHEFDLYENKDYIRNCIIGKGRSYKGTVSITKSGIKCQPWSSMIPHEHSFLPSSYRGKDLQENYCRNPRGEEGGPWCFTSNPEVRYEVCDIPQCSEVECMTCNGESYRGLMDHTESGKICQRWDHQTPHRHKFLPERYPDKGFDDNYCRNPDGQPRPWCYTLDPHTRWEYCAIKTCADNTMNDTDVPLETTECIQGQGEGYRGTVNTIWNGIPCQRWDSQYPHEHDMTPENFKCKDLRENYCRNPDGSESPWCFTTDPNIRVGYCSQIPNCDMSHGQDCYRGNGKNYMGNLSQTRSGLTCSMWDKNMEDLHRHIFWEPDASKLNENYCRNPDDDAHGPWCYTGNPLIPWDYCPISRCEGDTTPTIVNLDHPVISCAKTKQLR
# Procedure: Compounds were screened for potency towards the HGF/MET system using phospho-MET (pMET) ELISA kits (Cell Signaling). pMET levels were detected in samples having low (1 ng/mL) and high (10 ng/mL) concentrations of HGF.
# HEK293 cells were prepared by passage into 6-well multi-plates and grown at 37° C. at 5% CO2 in DMEM+10% FBS until approximately 90% confluent. Cells were then starved for at least 8 hours in serum-free growth media.
# Exemplary compounds were prepared in DMEM+0.1% FBS, diluted and added to treatment media with 1 ng/mL recombinant HGF protein (R&D Systems). Cells were incubated in triplicate at 37° C. and 5% CO2 for 15 minutes. Samples were then treated with 180 μL ice-cold RIPA (radioimmunoprecipitation assay) buffer and cells were lysed on ice for 15 minutes. Lysates were cleared by centrifugation at 16,000-g for 15 minutes and the supernatant was retained. Samples were normalized using a BCA assay of lysates to determine protein concentrations across the samples.
# Between 50 and 100 μg total protein lysate was loaded into ELISA wells in pMET Sandwich ELISA kit (Cell Signaling Catalog #7227C), ensuring equal protein load in each well. The ELISA was processed according to manufacturer's instructions. After color developed, absorbance was read on an optical plate reader at 450 nm.
# Potency measurements were determined using peak efficacy by scaling test compound dose treatments along a scale of 1-10 between 1 ng/mL and 10 ng/mL HGF doses according to the following formula: […]
# where y is the normalized data-point, x is the raw data point, A is the mean HGF at 1 ng/mL, and B is the mean HGF at 10 ng/mL.
# MDCK cells = experiment: Cell scattering behavior assay; type: cell-based; parameters: key: − indicates that the compound failed to significantly promote cell scattering behavior; + indicates maximum potency at or above 100 nM; ++ indicates maximum potency at or above 10 nM; +++ indicates maximum potency at or above 1 nM; ++++ indicates maximum potency at or above 0.1 nM; settings: 5 ng/mL HGF, 24 hours, normalized particle count vs HGF alone
# Procedure: MDCK cells were grown under normal conditions and observed to spontaneously form tight colonies as they proliferate. MDCK cells respond to HGF treatment by moving away from each other (scattering), which is quantified to assess the amount of HGF/MET activation in the cell population. In this experiment, MDCK cells were plated in a 96-well format, treated with HGF and exemplary compounds, fluorescently stained, imaged in large fields, and scattering behavior was quantified. Quantification was determined by analyzing the number of continuous groups of cells compared to the total stained area imaged (normalized particle counts).
# MDCK cells were plated at low density in black-walled imaging plates and allowed to attach overnight at 37° C. and 5% CO2 in DMEM+10% FBS. Cells were then starved to 2 hours in DMEM without FBS (“starve media”). Samples containing exemplary compounds were prepared in DMEM without FBS and included 5 ng/mL HGF protein (“treatment media”). A control curve was also prepared for each plate using HGF concentrations of 0, 5, 10, and 20 ng/mL. Starve media was replaced with treatment media and cells were incubated for 24 hours at 37° C. and 5% CO2.
# After incubation, cells were fixed by replacing treatment media with cold ethanol and incubating for 20 minutes at 4° C. Cells were then rehydrated by washing with PBS and then with stain solution (fluorescent wheat germ agglutinin; WGA488 at 20 μg/mL in PBS). Cells were incubated with stain solution 30 minutes at room temperature after which stain solution was replaced with fresh PBS.
# Fields of cells were imaged using an iCyte high content imager in the green wavelength. Images were converted to binary and analyzed for particle size and particle count. For the purpose of analysis, an individual cell touching no other cells or separated colonies of cells were identified as particles, and particle counts were normalized by the total signal area to account for differences in cell number. […] Compound potency was assessed by statistical increase in normalized particle count compared to HGF treatment alone.
SMILES,solubility at 2 h [1],Potency (augmentation of MET phosphorylation) (HGF/MET system),Potency (cell scattering) (MDCK cells)
CCC(C)CN1CC2N(Cc3ccc(C(F)(F)F)c(Cl)c3)CCC(=O)N2C(C)C1=O (centres unmarked) [Compound 43],> 100 µM,−,−
CC1C(=O)N(CCS(C)(=O)=O)CC2N(C(=O)c3ccc(OC(F)F)cc3)CCC(=O)N12 (centres unmarked) [Compound 36],> 300 µM,−,−
COCCCN1CC2N(C(=O)c3ccc(OC(F)F)cc3)CCC(=O)N2C(C)C1=O (centres unmarked) [Compound 33],> 300 µM,−,−
"CCC(C)CN1CC2N(Cc3ccc(OC(F)F)cc3)CCC(=O)N2C(CC(N)=O)C1=O (centres unmarked) [Compound 50, 2-(1-(4-(difluoromethoxy)benzyl)-8-(2-methylbutyl)-4,7-dioxooctahydro-2H-pyrazino[1,2-a]pyrimidin-6-yl)acetamide]",> 300 µM,−,−
CC1C(=O)N(CCC2CCCC2)CC2N(Cc3ccc(OC(F)F)cc3)CCC(=O)N12 (centres unmarked) [Compound 38],> 100 µM,−,
CC1C(=O)N(CC2CCCC2)CC2N(C(=O)c3ccc(C(F)(F)F)cc3)CCC(=O)N12 (centres unmarked) [Compound 15],> 300 µM,−,−
CCCCN1CC2N(C(=O)c3ccc(C(F)(F)F)cc3)CCC(=O)N2C(C)C1=O (centres unmarked) [Compound 21],> 300 µM,−,−
CC(C)N1CC2N(C(=O)c3ccc(C(F)(F)F)cc3)CCC(=O)N2C(C)C1=O (centres unmarked) [Compound 24],> 300 µM,−,−
COCCN1CC2N(C(=O)c3ccc(OC(F)F)cc3)CCC(=O)N2C(C)C1=O (centres unmarked) [Compound 32],> 300 µM,−,−
CC1C(=O)N(CCc2ccccc2)CC2N(C(=O)c3ccc(OC(F)F)cc3)CCC(=O)N12 (centres unmarked) [Compound 28],> 100 µM,−,−
C=CCCN1CC2N(Cc3ccc(OC(F)F)cc3)CCC(=O)N2C(C)C1=O (centres unmarked) [Compound 39],> 300 µM,−,−
CC1C(=O)N(CC2CCCO2)CC2N(C(=O)c3ccc(OC(F)F)cc3)CCC(=O)N12 (centres unmarked) [Compound 27],> 100 µM,−,
CC1C(=O)N(CC2CCCC2)CC2N(C(=O)c3ccc(OC(F)F)cc3)CCC(=O)N12 (centres unmarked) [Compound 13],> 300 µM,−,−
CC1C(=O)N(CCc2ccncc2)CC2N(C(=O)c3ccc(OC(F)F)cc3)CCC(=O)N12 (centres unmarked) [Compound 29],> 300 µM,−,
"CCC(C)CN1CC2N(Cc3ccc(OC(F)F)cc3)CCC(=O)N2C(CF)C1=O (centres unmarked) [Compound 47, 1-(4-(difluoromethoxy)benzyl)-6-(fluoromethyl)-8-(2-methylbutyl)hexahydro-4H-pyrazino[1,2-a]pyrimidine-4,7(6H)-dione]",> 300 µM,−,
CC1C(=O)N(CCc2ccco2)CC2N(C(=O)c3ccc(OC(F)F)cc3)CCC(=O)N12 (centres unmarked) [Compound 25],> 300 µM,−,−
CC1C(=O)N(CCC2CC2)CC2N(C(=O)c3ccc(OC(F)F)cc3)CCC(=O)N12 (centres unmarked) [Compound 31],> 300 µM,−,−
CCCCN1CC2N(Cc3ccc(OC(F)F)cc3)CCC(=O)N2C(C)C1=O (centres unmarked) [Compound 41],> 300 µM,−,−
CC1C(=O)N(CCc2cccs2)CC2N(C(=O)c3ccc(OC(F)F)cc3)CCC(=O)N12 (centres unmarked) [Compound 26],> 300 µM,−,−
"CCC(C)CN1CC2N(C(=O)c3ccc(Cl)cc3)CCC(=O)N2C(C)C1=O (centres unmarked) [Compound 10, 1-(4-chlorobenzoyl)-6-methyl-8-(2-methylbutyl)hexahydro-4H-pyrazino[1,2-a]pyrimidine-4,7(6H)-dione]",> 300 µM,−,−
"CC1C(=O)N(CCC2CCC2)CC2N(Cc3ccc(F)cc3)CCC(=O)N12 (centres unmarked) [Compound 45, 8-(2-cyclobutylethyl)-1-(4-fluorobenzyl)-6-methylhexahydro-4H-pyrazino[1,2-a]pyrimidine-4,7(6H)-dione]",> 300 µM,−,
CCC(C)CN1CC2N(Cc3c[nH]c4ccccc34)CCC(=O)N2C(C)C1=O (centres unmarked) [Compound 44],> 100 µM,−,−
CC1C(=O)N(CC2CCC2)CC2N(C(=O)c3ccc(C(F)(F)F)cc3)CCC(=O)N12 (centres unmarked) [Compound 16],> 300 µM,−,−
"CC1C(=O)N(CCN)CC2N(C(=O)c3ccc(OC(F)F)cc3)CCC(=O)N12 (centres unmarked) [Compound 35, 8-(2-aminoethyl)-1-(4-(difluoromethoxy)benzoyl)-6-methylhexahydro-4H-pyrazino[1,2-a]pyrimidine-4,7(6H)-dione]",> 300 µM,−,−
"CC1C(=O)N(CCO)CC2N(C(=O)c3ccc(OC(F)F)cc3)CCC(=O)N12 (centres unmarked) [Compound 34, 1-(4-(difluoromethoxy)benzoyl)-8-(2-hydroxyethyl)-6-methylhexahydro-4H-pyrazino[1,2-a]pyrimidine-4,7(6H)-dione]",> 300 µM,−,−
CC1C(=O)N(CCC2CCC2)CC2N(Cc3ccc(OC(F)F)cc3)CCC(=O)N12 (centres unmarked) [Compound 40],> 300 µM,−,
"CCC(C)CN1CC2N(Cc3ccc(C(F)(F)F)cc3)CCC(=O)N2C(CF)C1=O (centres unmarked) [Compound 48, 6-(fluoromethyl)-8-(2-methylbutyl)-1-(4-(trifluoromethyl)benzyl)hexahydro-4H-pyrazino[1,2-a]pyrimidine-4,7(6H)-dione]",> 100 µM,−,
